#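 Following 48 hours of exposure in 96-well plates, responses at five concentrations were used to interpolate endpoints linearly. GI50 = concentration required for 50% inhibition of growth. At the TGI there is no net growth.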
# What was measured:
# Assay in all cases: NCI anticancer screen, dose series, 48 h
# [1] = test system: UACC-62 melanoma
# [2] = test system: DU-145 prostate
# [3] = test system: SF-295 CNS
# [4] = test system: SW-620 colon
# [5] = test system: HS 578T breast
# [6] = test system: SK-MEL-5 melanoma
# [7] = test system: CAKI-1 renal
# [8] = test system: UO-31 renal
# [9] = test system: SF-268 CNS
# [10] = test system: 786-0 renal
# [11] = test system: HCC-2998 colon
# [12] = test system: TK-10 renal
# [13] = test system: SK-MEL-28 melanoma
# [14] = test system: HCT-116 colon
# [15] = test system: IGROV1 ovarian
# [16] = test system: MALME-3M melanoma
# [17] = test system: OVCAR-5 ovarian
# [18] = test system: HL-60(TB) leukemia
# [19] = test system: LOX IMVI melanoma
# [20] = test system: HOP-62 NSCLC
# [21] = test system: UACC-257 melanoma
# [22] = test system: OVCAR-3 ovarian
# [23] = test system: HT29 colon
# [24] = test system: RPMI-8226 leukemia
# [25] = test system: NCI-H226 lung
# [26] = test system: SF-539 CNS
# [27] = test system: SNB-75 CNS
# [28] = test system: KM12 colon
# [29] = test system: HCT-15 colon
# [30] = test system: NCI-H460 lung
# [31] = test system: U251 CNS
# [32] = test system: SN12C renal
# [33] = test system: SK-MEL-2 melanoma
# [34] = test system: CCRF-CEM leukemia
# [35] = test system: A549 NSCLC
# [36] = test system: COLO 205 colon
# [37] = test system: M14 melanoma
# [38] = test system: SR leukemia
# [39] = test system: EKVX NSCLC
# [40] = test system: ACHN renal
# [41] = test system: OVCAR-4 ovarian
# [42] = test system: NCI-H23 lung
# [43] = test system: NCI-H522 lung
# [44] = test system: NCI/ADR-RES ovarian
# [45] = test system: MOLT-4 leukemia
# [46] = test system: MDA-MB-231 breast
# [47] = test system: A498 renal
# [48] = test system: BT-549 breast
# [49] = test system: K-562 leukemia
# [50] = test system: T-47D breast
# [51] = test system: RXF 393 renal
# [52] = test system: PC-3 prostate
# [53] = test system: MCF7 breast
# [54] = test system: SNB-19 CNS
# [55] = test system: OVCAR-8 ovarian
# [56] = test system: MDA-MB-435
# [57] = test system: SK-OV-3 ovarian
# [58] = test system: HOP-92 NSCLC
smiles,measurement,setting,value
CN(C)c1ccc(/C=C/C(=O)c2ccc(Nc3nc(Nc4ccc(F)cc4)nc(Nc4ccc(Cl)cc4)n3)cc2)cc1,GI50,[1],14 µM
same,TGI,[1],37.9 µM
same,GI50,[2],5.5 µM
same,TGI,[2],27 µM
same,GI50,[3],4.78 µM
same,TGI,[3],31.9 µM
same,GI50,[4],6.79 µM
same,TGI,[4],33.6 µM
same,GI50,[5],4.12 µM
same,TGI,[5],49.6 µM
same,GI50,[6],2 µM
same,TGI,[6],10.9 µM
same,GI50,[7],14.6 µM
same,TGI,[7],> 100 µM
same,GI50,[8],3.22 µM
same,TGI,[8],21.4 µM
same,GI50,[9],6.75 µM
same,TGI,[9],63.6 µM
same,GI50,[10],2.71 µM
same,TGI,[10],14.1 µM
same,GI50,[11],15.4 µM
same,TGI,[11],> 100 µM
same,GI50,[12],11.3 µM
same,TGI,[12],81.3 µM
same,GI50,[13],3.88 µM
same,TGI,[13],52.7 µM
same,GI50,[14],3.3 µM
same,TGI,[14],15.5 µM
same,GI50,[15],3.02 µM
same,TGI,[15],22.1 µM
same,GI50,[16],10.7 µM
same,TGI,[16],33.8 µM
same,GI50,[17],20.3 µM
same,TGI,[17],> 100 µM
same,GI50,[18],1.75 µM
same,TGI,[18],5.34 µM
same,GI50,[19],8.93 µM
same,TGI,[19],47.2 µM
same,GI50,[20],9.42 µM
same,TGI,[20],28.3 µM
same,GI50,[21],11 µM
same,TGI,[21],54.7 µM
same,GI50,[22],5.48 µM
same,TGI,[22],21.6 µM
same,GI50,[23],5.18 µM
same,TGI,[23],38.9 µM
same,GI50,[24],3.53 µM
same,TGI,[24],26.5 µM
same,GI50,[25],15.6 µM
same,TGI,[25],> 100 µM
same,GI50,[26],9.58 µM
same,TGI,[26],27.2 µM
same,GI50,[27],9 µM
same,TGI,[27],38.9 µM
same,GI50,[28],5.75 µM
same,TGI,[28],23.2 µM
same,GI50,[29],4.66 µM
same,TGI,[29],> 100 µM
same,GI50,[30],3.94 µM
same,TGI,[30],15.6 µM
same,GI50,[31],7.66 µM
same,TGI,[31],70.6 µM
same,GI50,[32],15.3 µM
same,TGI,[32],> 100 µM
same,GI50,[33],4.6 µM
same,TGI,[33],18.6 µM
same,GI50,[34],2.57 µM
same,TGI,[34],9.44 µM
same,GI50,[35],5.03 µM
same,TGI,[35],35.1 µM
same,GI50,[36],4.26 µM
same,TGI,[36],18.7 µM
same,GI50,[37],4.29 µM
same,TGI,[37],19.1 µM
same,GI50,[38],1.06 µM
same,TGI,[38],3.67 µM
same,GI50,[39],8.21 µM
same,TGI,[39],> 100 µM
same,GI50,[40],6.13 µM
same,TGI,[40],> 100 µM
same,GI50,[41],10.7 µM
same,TGI,[41],> 100 µM
same,GI50,[42],5.95 µM
same,TGI,[42],39.5 µM
same,GI50,[43],3.17 µM
same,TGI,[43],24.1 µM
same,GI50,[44],3.56 µM
same,TGI,[44],33.4 µM
same,GI50,[45],1.55 µM
same,TGI,[45],5.23 µM
same,GI50,[46],9.56 µM
same,TGI,[46],73 µM
same,GI50,[47],2.97 µM
same,TGI,[47],18.1 µM
same,GI50,[48],7.39 µM
same,TGI,[48],55.7 µM
same,GI50,[49],2.77 µM
same,TGI,[49],> 100 µM
same,GI50,[50],3.33 µM
same,TGI,[50],45.2 µM
same,GI50,[51],1.92 µM
same,TGI,[51],6.1 µM
same,GI50,[52],2.08 µM
same,TGI,[52],5.45 µM
same,GI50,[53],2.61 µM
same,TGI,[53],21.5 µM
same,GI50,[54],17.1 µM
same,TGI,[54],> 100 µM
same,GI50,[55],1.99 µM
same,TGI,[55],15.1 µM
same,GI50,[56],3.03 µM
same,TGI,[56],17.3 µM
same,GI50,[57],19 µM
same,TGI,[57],74.9 µM
Cc1nc2cc(NC(=O)CN3CCN(CCN4C(=O)c5cccc6cccc(c56)C4=O)CC3)ccc2s1,GI50,[1],4.98 µM
same,TGI,[1],17.6 µM
same,GI50,[2],5.21 µM
same,TGI,[2],17.1 µM
same,GI50,[3],3.48 µM
same,TGI,[3],> 100 µM
same,GI50,[4],2.6 µM
same,TGI,[4],24.3 µM
same,GI50,[5],6.53 µM
same,TGI,[5],52.5 µM
same,GI50,[6],2.73 µM
same,TGI,[6],10.9 µM
same,GI50,[7],4.32 µM
same,TGI,[7],> 100 µM
same,GI50,[8],3.07 µM
same,TGI,[8],> 100 µM
same,GI50,[9],5.01 µM
same,TGI,[9],24.9 µM
same,GI50,[10],5.91 µM
same,TGI,[10],19.1 µM
same,GI50,[11],6.66 µM
same,TGI,[11],> 100 µM
same,GI50,[12],7.91 µM
same,TGI,[12],21.7 µM
same,GI50,[13],11.1 µM
same,TGI,[13],23.1 µM
same,GI50,[14],2.94 µM
same,TGI,[14],14.7 µM
same,GI50,[15],6.05 µM
same,TGI,[15],> 100 µM
same,GI50,[16],4.99 µM
same,TGI,[16],> 100 µM
same,GI50,[17],14.1 µM
same,TGI,[17],> 100 µM
same,GI50,[18],6.36 µM
same,TGI,[18],26.3 µM
same,GI50,[19],4.15 µM
same,TGI,[19],15.6 µM
same,GI50,[20],3.83 µM
same,TGI,[20],15.1 µM
same,GI50,[58],2.13 µM
same,TGI,[58],9.05 µM
same,GI50,[21],5.83 µM
same,TGI,[21],> 100 µM
same,GI50,[22],7.91 µM
same,TGI,[22],20.7 µM
same,GI50,[23],3.39 µM
same,TGI,[23],19.6 µM
same,GI50,[24],2.91 µM
same,TGI,[24],15.2 µM
same,GI50,[25],4.67 µM
same,TGI,[25],73.9 µM
same,GI50,[26],7.59 µM
same,TGI,[26],> 100 µM
same,GI50,[27],3.51 µM
same,TGI,[27],21.4 µM
same,GI50,[28],4.95 µM
same,TGI,[28],18.4 µM
same,GI50,[29],3.58 µM
same,TGI,[29],16.5 µM
same,GI50,[30],3.44 µM
same,TGI,[30],13.1 µM
same,GI50,[31],4.37 µM
same,TGI,[31],18.9 µM
same,GI50,[32],5.22 µM
same,TGI,[32],> 100 µM
same,GI50,[33],6.62 µM
same,TGI,[33],24.1 µM
same,GI50,[34],2.94 µM
same,TGI,[34],95.9 µM
same,GI50,[35],4.14 µM
same,TGI,[35],19.2 µM
same,GI50,[36],4.46 µM
same,TGI,[36],89.6 µM
same,GI50,[37],8.76 µM
same,TGI,[37],23 µM
same,GI50,[38],1.19 µM
same,TGI,[38],> 100 µM
same,GI50,[39],7.88 µM
same,TGI,[39],> 100 µM
same,GI50,[40],3.5 µM
same,TGI,[40],25 µM
same,GI50,[41],5.33 µM
same,TGI,[41],> 100 µM
same,GI50,[42],6.6 µM
same,TGI,[42],38.2 µM
same,GI50,[43],3.01 µM
same,TGI,[43],13.8 µM
same,GI50,[44],4.05 µM
same,TGI,[44],29.5 µM
same,GI50,[45],2.52 µM
same,TGI,[45],22.2 µM
same,GI50,[46],11.7 µM
same,TGI,[46],> 100 µM
same,GI50,[47],5.63 µM
same,TGI,[47],38.3 µM
same,GI50,[48],4.86 µM
same,TGI,[48],24.1 µM
same,GI50,[50],3.07 µM
same,TGI,[50],17.9 µM
same,GI50,[51],5.46 µM
same,TGI,[51],25.4 µM
same,GI50,[52],4.5 µM
same,TGI,[52],> 100 µM
same,GI50,[53],4.08 µM
same,TGI,[53],15.5 µM
same,GI50,[54],6.23 µM
same,TGI,[54],21.4 µM
same,GI50,[55],2.77 µM
same,TGI,[55],19.4 µM
same,GI50,[56],4.6 µM
same,TGI,[56],19.4 µM
same,GI50,[57],7.65 µM
same,TGI,[57],> 100 µM

# From PubChem BioAssay (NCI)
